Laboratory results published in patent US20090247533A1, “Ecteinascidins” (The Board of Trustees of the University of Illinois, priority 1994, published 2009).
Converted amounts (≈) assume the structure as drawn.

Key:
DNA synthesis = test: Antimetabolism: DNA synthesis inhibition; format: cell-based
RNA polymerase = test: Enzyme inhibition: RNA polymerase inhibition; format: biochemical
[1] = test system: CV-1 = monkey kidney cells; test: Cytotoxicity against CV-1 cells; format: cell-based
MEL28 = human melanoma = test: Cytotoxicity against MEL28 cells; format: cell-based
[2] = test system: A549 = human lung carcinoma; test: Cytotoxicity against A549 cells; format: cell-based
Bacillus subtilis = test: Antimicrobial activity against Bacillus subtilis (MIC, disc); format: cell-based; details: for B.s. MIC: Bacillus subtilis
[3] = test system: HT29 = human colon carcinoma; test: Cytotoxicity against HT29 cells; format: cell-based
RNA synthesis = test: Antimetabolism: RNA synthesis inhibition; format: cell-based
[4] = test system: P388 = murine lymphoma cells; test: Cytotoxicity against P388 cells; format: cell-based
protein synthesis = test: Antimetabolism: protein synthesis inhibition; format: cell-based
Stability in solution = format: physicochemical; details: giving reddish color
DNA polymerase = test: Enzyme inhibition: DNA polymerase inhibition; format: biochemical
[5] = test system: P388 murine leukemia, B16 melanoma, Lewis lung carcinoma, and several human tumor xenograft models in mice; details: human tumor xenografts in mice; cited from earlier work
B16 melanoma = details: evaluated by the NCI; cited from earlier work
[6] = test system: L1210 = murine lymphoma cells; test: Cytotoxicity against L1210 cells; format: cell-based

| Compound | DNA (DNA synthesis inhibition) IC50 (DNA synthesis) | RNAp (RNA polymerase inhibition) IC50 (RNA polymerase) | B.s. MIC (Bacillus subtilis) | CV-1 IC50 [1] | MEL28 IC50 (MEL28 = human melanoma) | A549 IC50 [2] | HT29 IC50 [3] | RNA (RNA synthesis inhibition) IC50 (RNA synthesis) | P388 IC50 [4] | Prot. (protein synthesis inhibition) IC50 (protein synthesis) | also measured |
| --- | --- | --- | --- | --- | --- | --- | --- | --- | --- | --- | --- |
| COc1cc2c(cc1OC(C)=O)CCN[C@]21CS[C@@H]2c3c(OC(C)=O)c(C)c4c(c3[C@H](COC1=O)N1[C@@H]2[C@H]2c3c(O)c(OC)c(C)c(Br)c3C[C@@H]([C@@H]1O)N2C)OCO4 [6′-Ac, 15-Br] | 0.5 µg/mL | 0.42 µg/mL |  |  |  |  |  |  |  |  |  |
| COc1c(C)cc2c(c1O)C1NC(C2)C(O)N2C3COC(=O)C(N)CSC(c4c(OC(C)=O)c(C)c(OC)c(O)c43)C12 (stereo not shown) [Et 583, Ecteinascidin 583] |  | 0.5 µg/mL | 0.74 μg/disc |  |  |  |  |  |  |  | IC50 ([1]; Primates): 0.025 µg/mL (≈ 0.0416 µM); IC50 (DNA synthesis): 1 µg/mL (≈ 1.66 µM); IC50 (MEL28 = human melanoma; SK-MEL-28): 0.005 µg/mL (≈ 0.00831 µM); IC50 [2]: 0.01 µg/mL (≈ 0.0166 µM); IC50 ([3]; HT-29): 0.01 µg/mL (≈ 0.0166 µM); IC50 (RNA synthesis): 0.4 µg/mL (≈ 0.665 µM); IC50 ([4]; Mus musculus): 0.01 µg/mL (≈ 0.0166 µM); IC50 (protein synthesis; read-out: Prot. (protein synthesis inhibition) IC50): 1 µg/mL (≈ 1.66 µM) |
| COc1c(C)cc2c(c1O)C1C3[C@@H]4SCC(=O)C(=O)OC[C@@H](c5c6c(c(C)c(OC(C)=O)c54)OCO6)N3[C@@H](O)[C@H](C2)N1C (stereo partly shown) [Et 594, Ecteinascidin 594] | 0.5 µg/mL | 1.0 µg/mL | 0.37 μg/disc | 0.025 µg/mL | 0.025 µg/mL | 0.02 µg/mL | 0.025 µg/mL | 0.5 µg/mL | 0.01 µg/mL | 0.8 µg/mL |  |
| COc1c(C)cc2c(c1O)[C@@H]1[C@@H]3[C@@H]4SC[C@H](N)C(=O)OC[C@@H](c5c(O)c(OC)c(C)c(OC(C)=O)c54)N3[C@@H](O)[C@@H](C2)N1C [Et 597, Ecteinascidin 597] | 0.08 µg/mL | 0.25 µg/mL | 0.14 μg/disc | 0.0025 µg/mL | 0.002 µg/mL | 0.002 µg/mL | 0.002 µg/mL | 0.01 µg/mL | 0.002 µg/mL | 0.7 µg/mL | stability in solution (Stability in solution): decomposed slowly in solution |
| COc1c(C)cc2c(c1O)[C@H]1N[C@@H](C2)[C@H](O)N2[C@H]1[C@@H]1SC[C@]3(NCCc4c3[nH]c3ccccc43)C(=O)OC[C@H]2c2c3c(c(C)c(OC(C)=O)c21)OCO3 [Et 722] | 0.4 µg/mL | 0.5 µg/mL | 0.70 μg/disc | 0.005 µg/mL | 0.002 µg/mL | 0.001 µg/mL | 0.002 µg/mL | 0.1 µg/mL | 0.001 µg/mL | 0.9 µg/mL | DNAp (DNA polymerase inhibition) IC50 (DNA polymerase): >1 µg/mL; efficacy in vivo [5]: promising efficacy in vivo |
| COc1cc2c(cc1O)CCN[C@]21CS[C@@H]2c3c(OC(C)=O)c(C)c4c(c3[C@H](COC1=O)N1[C@@H]2[C@@H]2N[C@@H](Cc3cc(C)c(OC)c(O)c32)[C@@H]1O)OCO4 [Et 729] | 0.2 µg/mL | 0.05 µg/mL | 0.08 μg/disc | 0.0025 µg/mL | 0.005 µg/mL | 0.0002 µg/mL | 0.0005 µg/mL | 0.02 µg/mL | 0.0002 µg/mL | >1 µg/mL | DNAp (DNA polymerase inhibition) IC50 (DNA polymerase): 1.5 µg/mL; efficacy in vivo [5]: promising efficacy in vivo; survivors 60 days following infection with B16 melanoma (B16 melanoma): 8 of 10; L1210 IC50 [6]: <0.001 µg/mL |
| COc1cc2c(cc1O)CCNC21CSC2c3c(OC(C)=O)c(C)c4c(c3C(COC1=O)N1CC3Cc5cc(C)c(OC)c(O)c5C(N3)C21)OCO4 (stereo not shown) [Et 731, Ecteinascidin 731] |  |  | 6.20 μg/disc | 0.2 µg/mL | 0.2 µg/mL | 0.1 µg/mL | 0.1 µg/mL |  | 0.1 µg/mL | >1 µg/mL |  |
| COc1c(C)cc2c(c1O)[C@@H]1[C@@H]3[C@@H]4SC[C@]5(NCCc6c5[nH]c5ccccc65)C(=O)OC[C@@H](c5c6c(c(C)c(OC(C)=O)c54)OCO6)N3[C@@H](O)[C@H](C2)N1C [Et 736] | 0.4 µg/mL | 0.5 µg/mL | 0.38 μg/disc | 0.0025 µg/mL | 0.0025 µg/mL | 0.001 µg/mL | 0.0025 µg/mL | 0.1 µg/mL | 0.0005 µg/mL | 0.5 µg/mL |  |
| COc1cc2c(cc1O)CCN[C@]21CS[C@@H]2c3c(OC(C)=O)c(C)c4c(c3[C@H](COC1=O)N1[C@@H]2[C@H]2c3c(cc(C)c(OC)c3O)C[C@@H]([C@@H]1O)N2C)OCO4 [Et 743] | 0.1 µg/mL | 0.1 µg/mL | 0.02 μg/disc | 0.001 µg/mL | 0.005 µg/mL | 0.0002 µg/mL | 0.0005 µg/mL | 0.03 µg/mL | 0.0002 µg/mL | >1 µg/mL | DNAp (DNA polymerase inhibition) IC50 (DNA polymerase): 2 µg/mL; efficacy in vivo [5]: promising efficacy in vivo; L1210 IC50 [6]: 0.005 µg/mL |
| COc1cc2c(cc1O)CCNC21C[S+]([O-])C2c3c(OC(C)=O)c(C)c4c(c3C(COC1=O)N1C(O)C3Cc5cc(C)c(OC)c(O)c5C(N3)C21)OCO4 (stereo not shown) [Et 745B, Ecteinascidin 745B] | >1 µg/mL | 3 µg/mL |  | 0.025 µg/mL |  | 0.01 µg/mL | 0.01 µg/mL | 0.5 µg/mL | 0.005 µg/mL |  | L1210 IC50 [6]: 0.025 µg/mL |
| COc1cc2c(cc1O)CCN[C@]21CS[C@@H]2c3c(OC(C)=O)c(C)c4c(c3[C@H](COC1=O)N1C[C@@H]3Cc5cc(C)c(OC)c(O)c5[C@H]([C@H]21)N3C)OCO4 [Et 745] | >1 µg/mL |  | 6.50 μg/disc | 0.05 µg/mL | 0.05 µg/mL | 0.02 µg/mL | 0.025 µg/mL | 0.3 µg/mL | 0.01 µg/mL |  |  |
| COc1cc2c(cc1O)CCN[C@]21C[S+]([O-])[C@@H]2c3c(OC(C)=O)c(C)c4c(c3[C@H](COC1=O)N1[C@H]2[C@H]2c3c(cc(C)c(OC)c3O)C[C@@H]([C@H]1O)N2C)OCO4 (stereo partly shown) [Et 759B] | 0.7 µg/mL | >1 µg/mL | 3.90 μg/disc | 0.025 µg/mL | 0.01 µg/mL | 0.005 µg/mL | 0.005 µg/mL | 0.5 µg/mL | 0.005 µg/mL | >1 µg/mL |  |
| COc1cc2c(cc1O)CCNC21CSC2c3c(OC(C)=O)c(C)c4c(c3C(COC1=O)N1C(C(C=O)C=O)C3Cc5cc(C)c(OC)c(O)c5C(C21)N3C)OCO4 (stereo not shown) [Et 815, Ecteinascidin 815] | >1 µg/mL |  | 0.75 μg/disc | 0.005 µg/mL |  | 0.005 µg/mL | 0.005 µg/mL | 0.1 µg/mL | 0.0025 µg/mL |  | L1210 IC50 [6]: 0.025 µg/mL |
| COc1cc2c(cc1O)CCNC21CSC2c3c(OC(C)=O)c(C)c4c(c3C(COC1=O)N1C(O)C3Cc5c(Br)c(C)c(OC)c(O)c5C(C21)N3C=O)OCO4 (stereo not shown) [N—CHO, 15-Br (18)] |  |  |  | 0.25 µg/mL |  | 0.2 µg/mL | 0.2 µg/mL |  | 0.05 µg/mL |  |  |
| COc1cc2c(cc1O)CCNC21CSC2c3c(OC(C)=O)c(C)c4c(c3C(COC1=O)N1C(O)C3Cc5cc(C)c(OC)c(O)c5C(C21)N3C=O)OCO4 (stereo not shown) [N—CHO] |  | 4 µg/mL | 6.60 μg/disc |  |  |  |  |  |  |  |  |
| Ecteinascidin 596 [Et 596] |  |  |  |  |  |  |  |  |  |  | antimicrobial activity against B. subtilis (MIC) (Bacillus subtilis; crude sample, single major peak by FABMS): 0.3 μg/disc |
